Data on 25 molecules can be found in US9562031B1, “Phenethyldihydrobenzodioxolones and methods of use” (Sequoia Sciences, Inc., priority 2015, dated 2017).

SMILES strings stand for the structures. pIC50: −log10 of the molar value. Like-named read-outs stand apart in the source and are kept apart here.

For test [1], the system named is M14 (amelanotic melanoma) cells. The experiment in a line: antiproliferation assay (72 h, CELLTITER 96), M14. Format: cell-based, human. The following applies: Homo sapiens. As to the method: (§1) All of the compounds shown in Table 3-Table 8 below were prepared synthetically as described in EXAMPLE I. The compounds were tested for their ability to inhibit the proliferation of human cancer cells in vitro as described in the following paragraph. Table 3-Table 8 list the IC50 values in the M14 and NCI-H460 human cancer cell lines. IC50 is defined as the concentration of compound necessary to achieve 50% of the maximum growth inhibition.
(§2) For the antiproliferation assay, NCI-H460 (large cell lung carcinoma) or M14 (amelanotic melanoma) cells were grown in RPMI-1640 with 10% FBS supplemented with L-glutamine and HEPES. Cells were seeded into 96-well plates at 5×10^2 to 5×10^4 cells/well and allowed to adhere overnight; the medium was then removed. A stock solution of test compound in DMSO was diluted in medium to generate a series of working solutions. Aliquots (100 μl) of the working solutions were then added to the appropriate test wells to expose cells to the final concentrations of compound in a total volume of 100 μl. Seven different concentrations were tested, with 2-5 wells per concentration. Camptothecin was used as a positive control; wells containing vehicle without compound were used as negative controls. Plates were kept for 72 h in a 37° C., 5% CO2 incubator. After incubation, viable cells were detected with the CELLTITER 96 AQueous Non-Radioactive Cell Proliferation Assay (Promega), and IC50 values were determined using GraphPad Prism 5 software.

For test [2], the system named is NCI-H460 (large cell lung carcinoma) cells. Nature of the test: antiproliferation assay (72 h, CELLTITER 96), NCI-H460. Format: cell-based, human. The following applies: Homo sapiens, read-out: NCI-H460 IC50. As to the method:
as §1, §2

On to `C=CC[C@H]1C[C@]2([C@H](C)Cc3cc(F)c(NC)cc3F)OCOC2=CC1=O` (relative stereo) [Compound 44, 6-allyl-7a-(1-(2,5-difluoro-4-(methylamino)phenyl)propan-2-yl)-7,7a-dihydrobenzo[d][1,3]dioxol-5(6H)-one], for which the pIC50 in test [1] (Table 5) is 7.80; in test [2] (NCI-H460, Table 5), 7.17.

Consider `COc1cc(F)c(C[C@H](C)[C@]23C[C@H](Cc4ccncc4)C(=O)C=C2OCO3)cc1O` [Compound 114, (6S,7aR)-7a-((S)-1-(2-fluoro-5-hydroxy-4-methoxyphenyl)propan-2-yl)-6-(pyridin-4-ylmethyl)-7,7a-dihydrobenzo[d][1,3]dioxol-5(6H)-one], for which the pIC50 is 5.46 in test [1] (Table 7) and 5.70 in test [2] (NCI-H460, Table 7).

Consider `C=CC[C@H]1C[C@]2(C(C)Cc3cc(C(=O)O)c(OC)cc3F)OCOC2=CC1=O` (stereo partly drawn) [Compound 92, 5-(2-((3aR,5S)-5-allyl-6-oxo-3a,4,5,6-tetrahydrobenzo[d][1,3]dioxol-3a-yl)propyl)-4-fluoro-2-methoxybenzoic acid], for which the negative-log IC50 (pIC50) in test [1] (Table 3) is under 4.70; in test [2] (NCI-H460, Table 3) it was under 4.70.

With `C=CC[C@H]1C[C@]2(C(C)Cc3ccc(OC)c(OC)c3)OCOC2=C(C)C1=O` (stereo partly drawn) [Compound 88, (6S,7aR)-6-allyl-7a-(1-(3,4-dimethoxyphenyl)propan-2-yl)-4-methyl-7,7a-dihydrobenzo[d][1,3]dioxol-5(6H)-one], the pIC50 is 5.38 in test [1] (Table 8) and 5.34 in test [2] (NCI-H460, Table 8).

As for `COc1ccc(C[C@H](C)[C@]23C[C@H](CC=C(F)F)C(=O)C=C2OCO3)c(F)c1` [Compound 68, (6S,7aR)-6-(3,3-difluoroallyl)-7a-((S)-1-(2-fluoro-4-methoxyphenyl)propan-2-yl)-7,7a-dihydrobenzo[d][1,3]dioxol-5(6H)-one], the negative logarithm of the IC50 (pIC50) in test [1] (Table 7) is 6.07; in test [2] (NCI-H460, Table 7) it was 6.09.

Consider `C=CC[C@H]1C[C@]2([C@H](C)Cc3ccc(OC)cc3Cl)OCOC2=CC1=O` [Compound 54, (6S,7aR)-6-allyl-7a-((R)-1-(2-chloro-4-methoxyphenyl)propan-2-yl)-7,7a-dihydrobenzo[d][1,3]dioxol-5(6H)-one], for which the pIC50 in test [1] (Table 6) is 7.35; in test [2] (NCI-H460, Table 6) it was 6.49.

In the case of `C=CC[C@H]1C[C@]2([C@H](C)Cc3cc(F)c(OC)cc3F)O[C@H](C)OC2=CC1=O` [Compound 89, (2R,6S,7aR)-6-allyl-7a-((R)-1-(2,5-difluoro-4-methoxyphenyl)propan-2-yl)-2-methyl-7,7a-dihydrobenzo[d][1,3]dioxol-5(6H)-one], the pIC50 in test [1] (Table 8) was under 4.70; in test [2] (NCI-H460, Table 8) it was 5.16.

Consider `CC[C@H](C)[C@H]1C[C@]2([C@@H](C)Cc3cc(O)c(OC)cc3F)OCOC2=CC1=O` [Compound 77, (6R,7aR)-6-((S)-sec-butyl)-7a-((S)-1-(2-fluoro-5-hydroxy-4-methoxyphenyl)propan-2-yl)-7,7a-dihydrobenzo[d][1,3]dioxol-5(6H)-one], for which the pIC50 in test [1] (Table 7) was 6.96; in test [2] (NCI-H460, Table 7) it was 6.26.

In the case of `C=C[C@@H](C)[C@H]1C[C@]2([C@@H](C)Cc3ccc(OC)cc3F)OCOC2=CC1=O` [Compound 112, (6R,7aR)-6-((R)-but-3-en-2-yl)-7a-((S)-1-(2-fluoro-4-methoxyphenyl)propan-2-yl)-7,7a-dihydrobenzo[d][1,3]dioxol-5(6H)-one], the pIC50 is 7.36 in test [1] (Table 7) and 7.17 in test [2] (NCI-H460, Table 7).

For the molecule `C=CC[C@H]1C[C@]2(C(C)Cc3cc(NC(C)=O)c(OC)cc3F)OCOC2=CC1=O` (stereo in doubt) [Compound 19, N-(5-((S)-2-((3aR,5S)-5-allyl-6-oxo-3a,4,5,6-tetrahydrobenzo[d][1,3]dioxol-3a-yl)propyl)-4-fluoro-2-methoxyphenyl)acetamide], the pIC50 in test [1] (Table 3) is 7.28; in test [2] (NCI-H460, Table 3), 7.15.

As for `C=C(F)C[C@H]1C[C@]2([C@@H](C)Cc3cc(F)c(OC)cc3F)OCOC2=CC1=O` [Compound 64, (6R,7aR)-7a-((S)-1-(2,5-difluoro-4-methoxyphenyl)propan-2-yl)-6-(2-fluoroallyl)-7,7a-dihydrobenzo[d][1,3]dioxol-5(6H)-one], the pIC50 is 6.85 in test [1] (Table 7) and 6.66 in test [2] (NCI-H460, Table 7).

Take `C/C=C/[C@H]1C[C@]2([C@H](C)Cc3cc(O)c(OC)cc3F)OCOC2=CC1=O` [Compound 74, (6R,7aR)-7a-((R)-1-(2-fluoro-5-hydroxy-4-methoxyphenyl)propan-2-yl)-6-((E)-prop-1-en-1-yl)-7,7a-dihydrobenzo[d][1,3]dioxol-5(6H)-one]: the pIC50 in test [1] (Table 7) was 6.92; in test [2] (NCI-H460, Table 7) it was 6.54.

For the molecule `C=CC[C@H]1C[C@]2([C@@H](CC)Cc3ccc(OC)c(OC)c3)OCOC2=CC1=O` [Compound 87, (6S,7aR)-6-allyl-7a-(1-(3,4-dimethoxyphenyl)butan-2-yl)-7,7a-dihydrobenzo[d][1,3]dioxol-5(6H)-one], the pIC50 in test [1] (Table 8) was 5.59; in test [2] (NCI-H460, Table 8), 4.96.

For `COc1ccc(CC(C)[C@]23CC(CC(C)=O)C(=O)C=C2OCO3)cc1OC` (some centres unmarked) [Compound 106], the pIC50 in test [1] (Table 7) was under 4.70; in test [2] (NCI-H460, Table 7), under 4.70.

Take `C=CC[C@H]1C[C@]2(C(C)Cc3ccc(OCC)cc3)OCOC2=CC1=O` (stereo partly drawn) [Compound 40, (6S,7aR)-6-allyl-7a-(1-(4-ethoxyphenyl)propan-2-yl)-7,7a-dihydrobenzo[d][1,3]dioxol-5(6H)-one]: the pIC50 in test [1] (Table 5) is 6.19; in test [2] (NCI-H460, Table 5) it was 5.70.

For `COc1cc(F)c(C[C@H](C)[C@]23C[C@H](CCCF)C(=O)C=C2OCO3)cc1O` [Compound 69, (6S,7aR)-7a-((S)-1-(2-fluoro-5-hydroxy-4-methoxyphenyl)propan-2-yl)-6-(3-fluoropropyl)-7,7a-dihydrobenzo[d][1,3]dioxol-5(6H)-one], the pIC50 in test [1] (Table 7) is 6.24; in test [2] (NCI-H460, Table 7) it was 6.29.

Consider `C=CC[C@H]1C[C@]2([C@@H](C)Cc3cc(C#N)c(OC)cc3F)OCOC2=CC1=O` [Compound 14, 5-((S)-2-((3aR,5S)-5-allyl-6-oxo-3a,4,5,6-tetrahydrobenzo[d][1,3]dioxol-3a-yl)propyl)-4-fluoro-2-methoxybenzonitrile], for which the pIC50 in test [1] (Table 3) is 7.43; in test [2] (NCI-H460, Table 3), 6.82.

Consider `CCC[C@H]1C[C@]2([C@@H](C)Cc3ccc(OC)c(OC)c3)OCOC2=CC1=O` [Compound 70, (6S,7aR)-7a-((S)-1-(3,4-dimethoxyphenyl)propan-2-yl)-6-propyl-7,7a-dihydrobenzo[d][1,3]dioxol-5(6H)-one], for which the negative-log IC50 (pIC50) in test [1] (Table 7) is 5.13; in test [2] (NCI-H460, Table 7) it was under 5.40.

In the case of `C=CC[C@H]1C[C@]2([C@@H](C)Cc3ccc(OC)c(C(=O)NC)c3)OCOC2=CC1=O` [Compound 30, 5-((S)-2-((3aR,5S)-5-allyl-6-oxo-3a,4,5,6-tetrahydrobenzo[d][1,3]dioxol-3a-yl)propyl)-2-methoxy-N-methylbenzamide], the pIC50 in test [1] (Table 4) is 5.85; in test [2] (NCI-H460, Table 4) it was 5.96.

As to `C=CC[C@H]1C[C@]2([C@H](C)Cc3cc(C(=O)NC)c(OC)cc3F)OCOC2=CC1=O` [Compound 13, 5-((R)-2-((3aR,5S)-5-allyl-6-oxo-3a,4,5,6-tetrahydrobenzo[d][1,3]dioxol-3a-yl)propyl)-4-fluoro-2-methoxy-N-methylbenzamide], the pIC50 is 6.72 in test [1] (Table 3) and 6.43 in test [2] (NCI-H460, Table 3).

Turning to `C=CC[C@H]1C[C@]2([C@@H](C)Cc3cc(F)c(N(C)C)cc3F)OCOC2=CC1=O` [Compound 48, (6S,7aR)-6-allyl-7a-((S)-1-(4-(dimethylamino)-2,5-difluorophenyl)propan-2-yl)-7,7a-dihydrobenzo[d][1,3]dioxol-5(6H)-one], the pIC50 in test [1] (Table 5) was 7.15; in test [2] (NCI-H460, Table 5), 6.48.

As to `C=CC[C@H]1C[C@]2([C@@H](C)Cc3cc(OC)c(OC)cc3F)OCOC2=CC1=O` [Compound 15, (6S,7aR)-6-allyl-7a-((S)-1-(2-fluoro-4,5-dimethoxyphenyl)propan-2-yl)-7,7a-dihydrobenzo[d][1,3]dioxol-5(6H)-one], the pIC50 was 7.85 in test [1] (Table 3) and 6.92 in test [2] (NCI-H460, Table 3).

Turning to `C=CC[C@H]1C[C@]2([C@H](C)Cc3ccc(OC)c(OC)c3)OCOC2=CC1=O` [Compound 24, (6S,7aR)-6-allyl-7a-((R)-1-(3,4-dimethoxyphenyl)propan-2-yl)-7,7a-dihydrobenzo[d][1,3]dioxol-5(6H)-one], the pIC50 in test [1] (Table 4) was 6.96; in test [2] (NCI-H460, Table 4), 6.49.

With `C=CC[C@H]1C[C@]2([C@@H](C)Cc3ccc(OC)cc3OC(C)=O)OCOC2=CC1=O` [Compound 53, 2-((S)-2-((3aR,5S)-5-allyl-6-oxo-3a,4,5,6-tetrahydrobenzo[d][1,3]dioxol-3a-yl)propyl)-5-methoxyphenyl acetate], the pIC50 is 6.57 in test [1] (Table 6) and 5.64 in test [2] (NCI-H460, Table 6).

With `COc1cc(F)c(C[C@H](C)[C@]23C[C@H](CC(C)=O)C(=O)C=C2OCO3)cc1O` [Compound 111, (6R,7aR)-7a-((S)-1-(2-fluoro-5-hydroxy-4-methoxyphenyl)propan-2-yl)-6-(2-oxopropyl)-7,7a-dihydrobenzo[d][1,3]dioxol-5(6H)-one], the pIC50 was 5.15 in test [1] (Table 7) and 4.82 in test [2] (NCI-H460, Table 7).

The term pIC50 denotes the IC50 on a negative log10 scale, so that one unit is a factor of ten.
